Publication PMC5556071, “ATR inhibition facilitates targeting of leukemia dependence on convergent nucleotide biosynthetic pathways” (Nature Communications, 2017)
“And” between values parts separate entries of the source, which are not always exact repeats. Equal entries are not always repeated.

Tested on: CEM cells
Assay: Non-targeted LC-MS metabolite profiling: percent [13C6]glucose labeling and relative metabolite levels
Type: cell-based, human
Settings: CEM cells, 12 h following release from G1 arrest, replicates #1-#6
Source text: To further investigate the functions of dCK and ATR at the G1/S transition in CEM cells, a non-targeted liquid chromatography mass spectrometry (LC-MS) assay was used to determine the utilization of labeled [^13C6]glucose and [^13C9,^15N3]deoxycytidine, the main substrates for de novo and salvage nucleotide biosynthesis, respectively. Of the 166 metabolites identified in CEM cells treated with VE-822 and/or dCKi, 105 metabolites found in all four treatment groups contained glucose-derived ^13C atoms. […] These metabolites included intermediates such as rUTP, rCTP and rCDP in the de novo dCTP biosynthesis (Fig. 1d). […] However, several deoxyribonucleotides, including dCTP, were below the limit of detection of the non-targeted LC-MS approach, raising the concern that the sensitivity of this assay is not sufficient to measure the contribution of the salvage pathway or the ratio of de novo and salvage biosynthesis to these pools. To address this problem, a newly developed targeted MS assay was developed (Fig. 1e and Supplementary Fig. 3). In this assay, samples containing either extracted dNTPs or hydrolyzed DNA from labeled cells are separated by LC for detection by a triple quadrupole mass spectrometer using multiple reaction monitoring (LC-MS/MS-MRM). The first (Q1) and third (Q3) quadrupoles function as mass filters, while the second (Q2) quadrupole serves as a collision chamber (Fig. 1e). For instance, to profile the biosynthetic composition of deoxycytidine (dC) derived from hydrolyzed DNA or dCTP, an intact, protonated dC ion is selected in Q1, followed by fragmentation of the glycosidic bond, which releases protonated cytosine in Q2, that is filtered in Q3 and detected to generate an ion chromatogram. The peak areas for the ion chromatograms of salvage [^13C9,^15N3]dC (red trace), de novo [^13C5]dC (black trace, from [^13C6]glucose) and unlabeled dC (gray trace) (Fig. 1e) are used to determine the relative contributions of the de novo and salvage routes both to dCTP pools and to DNA-incorporated dCTP.
Cells were transferred into RPMI-1640 without glucose and supplemented with 10% dialyzed FBS (Gibco) containing the following labeled substrates: precursors for de novo [U-^13C6]glucose (Sigma-Aldrich, 389374) at 11 mM; precursors for purine salvage [U-^13C10,^15N5]dA (Cambridge Isotopes, CIL 3896), [^15N5]dA (Cambridge Isotopes, NLM-3895) and [^15N5]dG (Cambridge Isotopes, NLM-3899) at 5 µM or as indicated; and precursors for pyrimidine salvage: [U-^13C9,^15N3]dC (Silantes, 124603602) and [U-^13C10,^15N2]dT (Cambridge Isotopes, CNLM-3902) at 5 µM and [^15N2]orotate (Cambridge Isotopes, NLM-1048) at indicated concentrations. The cells were incubated for 12 h or as indicated before sample collection and processing. […]
Non-targeted LC-MS metabolic assays. 1 x 10^6 cells were washed with ice-cold 150 mM ammonium acetate twice before adding 1 mL of ice-cold 80% methanol with 10 nM norvaline as an internal standard. After vigorous vortexing, samples were centrifuged at maximum speed, the aqueous layer was transferred to a glass vial and the metabolites were dried under vacuum. Metabolites were resuspended in 50 μL 70% acetonitrile (ACN) and 5 μL of this solution used for the mass spectrometer-based analysis. The analysis was performed on a Q Exactive (Thermo Scientific) in polarity-switching mode with positive voltage 4.0 kV and negative voltage 4.0 kV. The mass spectrometer was coupled to an UltiMate 3000RSLC (Thermo Scientific) UHPLC system. Mobile phase A was 5 mM ammonium acetate (NH4AcO), pH 9.9, B was acetonitrile and the separation achieved on a Luna […] NH2 100 A column (150 × 2.0 mm, Phenomenex). The flow was 200 μL/min, and the gradient ran from 15% A to 95% A in 18 min, followed by an isocratic step for 9 min and re-equilibration for 7 min. Metabolites were detected and quantified as area under the curve based on retention time and accurate mass (≤ 3 p.p.m.) using the TraceFinder 3.1 (Thermo Scientific). Relative amounts of […]

SMILES: CNCc1ccc(-c2cc(-c3nc(-c4ccc(S(=O)(=O)C(C)C)cc4)cnc3N)on2)cc1 [VE-822]
- Glucose labeling, Tyr (C00082): 0.00%
- Glucose labeling, Uric Acid (C00366): 0.00%
- Relative level, Orotate: 0.7
- Glucose labeling, Lac (listed as V): 18.07% and 12.73% and 18.58% and 10.84% and 13.61% and 9.63%
- Glucose labeling, Lys (listed as V): 0.00% (4×) and 1.11e-14% (2×)
- Glucose labeling, Mal (listed as V): 21.43% and 21.55% and 21.63% and 20.66% and 20.63% and 19.36%
- Glucose labeling, Met (listed as V): 0.00201% and 0.00233% and 0.002% and 0.0022% and 0.00164% and 0.00224%
- Glucose labeling, N-Carbamoyl-L-aspartate (listed as V): 0.12% (3×) and 1.58% and 100.00% (2×)
- Glucose labeling, NADP+ (listed as V): 0.00% (5×) and 100.00%
- Glucose labeling, Nicotinamide (listed as V): 0.00% (4×) and -2.22e-14% and 1.11e-14%
- Glucose labeling, Ornithine (listed as V): 0.12% (3×) and 0.10% and 0.0528% and 0.00133%
- Glucose labeling, Orotate (listed as V): 100.00% (5×) and 0.0318%
- Glucose labeling, Orotidine (listed as V): 33.66% and 31.88% and 29.83% and 33.19% and 33.56% and 35.92%
- Glucose labeling, P-Choline (listed as V): 0.00204% (2×) and 0.00195% and 0.0016% and 0.00194% and 0.00159%
- Glucose labeling, P-Ser (listed as V): 17.40% and 18.30% and 18.56% and 14.37% and 10.74% and 15.47%
- Glucose labeling, Palmitate (listed as V): 0.0183% and 0.0339% and 0.00791% and 0.04% and 0.0649% and 0.00591%
- Glucose labeling, Pantothenate (listed as V): 0.00% (5×) and 1.11e-14%
- Glucose labeling, Pro (listed as V): 9.73% and 9.96% and 9.64% and 8.05% and 8.31% and 8.35%
- Glucose labeling, Pro-OH (listed as V): 0.00141% and 0.00104% and 0.000977% and 0.00201% and 0.00147% and 0.00157%
- Glucose labeling, R5P (listed as V): 100.00% (5×) and 87.46%
- Glucose labeling, S7P (listed as V): 82.53% and 82.63% and 83.80% and 82.99% and 87.27% and 79.29%
- Glucose labeling, SAM (listed as V): 61.24% and 62.78% and 63.01% and 60.62% and 59.88% and 60.86%
- Glucose labeling, Ser (C00065) (listed as V): 11.13% and 10.40% and 10.89% and 9.46% and 9.59% and 9.87%
- Glucose labeling, Shikimate (C00493) (listed as V): 0.00% (5×) and 1.11e-14%
- Glucose labeling, Succ (C00042) (listed as V): 0.93% and 0.0737% (3×) and 0.000466% and 0.000404%
- Glucose labeling, T (C00214) (listed as V): 0.47% and 0.23% and 0.34% and 0.00858% and 0.08% (2×)
- Glucose labeling, Thymine (C00178) (listed as V): 0.000884% and 0.000908% and 0.01% and 0.02% (2×) and 0.000701%
- Glucose labeling, Trp (C00078) (listed as V): 0.00% (4×) and -2.22e-14% and 1.11e-14%
- Glucose labeling, Tyramine (C00483) (listed as V): 0.00% (4×) and -2.22e-14% and 1.11e-14%
- Glucose labeling, UDP (C00015) (listed as V): 69.98% and 62.30% and 68.54% and 67.03% and 57.99% and 53.20%
- Glucose labeling, UDP-Glc (C00029) (listed as V): 98.27% and 97.52% and 97.62% and 96.48% and 95.86% and 94.41%
- Glucose labeling, UDP-GlcNAc (C00043) (listed as V): 91.42% and 92.87% (2×) and 89.85% and 89.76% and 89.80%
- Glucose labeling, UMP (C00105) (listed as V): 70.24% and 69.75% and 64.97% and 37.55% and 64.64% and 60.30%
- Glucose labeling, UTP (C00075) (listed as V): 73.32% and 70.31% and 75.59% and 75.28% and 69.74% and 72.15%
- Glucose labeling, Uracil (C00106) (listed as V): 0.06% and 0.05% and 0.00305% and 0.0378% and 0.0737% (2×)
- Glucose labeling, Urocanate (C00785) (listed as V): 0.00% (5×) and -2.22e-14%
- Glucose labeling, Val (C00183) (listed as V): 0.00% (5×) and -2.22e-14%
- Glucose labeling, Vit-C (C00072) (listed as V): 0.00% (5×) and -2.22e-14%
- Glucose labeling, Xanthine (C00385) (listed as V): 0.12% (2×) and 0.06% and 0.0856% and 0.09% (2×)
- Relative level, Lac (listed as V): 1.3 (2×) and 1.2 and 0.857 and 0.476 and 0.85
- Relative level, Leu/Ile (listed as V): 1.4 and 1.5 (2×) and 0.9 (2×) and 1.0
- Relative level, Lys (listed as V): 1.7 and 1.9 and 1.8 and 0.9 and 1.0 and 1.2
- Relative level, Mal (listed as V): 1.3 and 0.7 and 0.752 and 0.6 and 0.471 and 0.4
- Relative level, Met (listed as V): 1.5 (3×) and 0.9 (2×) and 1.0
- Relative level, N-Carbamoyl-L-aspartate (listed as V): 1.0 and 0.6 and 0.7 and 0.749
- Relative level, NAD+ (listed as V): 1.0 and 0.9 (2×) and 0.647 and 0.7 and 0.752
- Relative level, NADP+ (listed as V): 0.455 and 0.8 and 0.9 and 0.657 and 0.3
- Relative level, Nicotinamide (listed as V): 1.2 (2×) and 1.1 and 1.0 and 0.9 and 0.854
- Relative level, Ornithine (listed as V): 1.1 and 1.4 (2×) and 0.7 and 0.9 and 1.0
- Relative level, Orotidine (listed as V): 1.0 (3×) and 0.6 (2×) and 0.567
- Relative level, P-Choline (listed as V): 1.3 and 1.1 (2×) and 0.76 and 0.66 and 0.557
- Relative level, P-Creatine (listed as V): 1.7 and 0.9 (2×) and 0.7 and 1.5 and 1.2
- Relative level, P-EtA (listed as V): 1.1 and 0.7 and 0.6 and 1.7 and 0.744 and 0.5
- Relative level, P-Ser (listed as V): 1.0 (2×) and 1.1 and 0.37 and 0.234 and 0.273
- Relative level, PEP (listed as V): 0.435 and 0.082
- Relative level, Palmitate (listed as V): 0.9 (3×) and 1.1 and 1.2 and 1.0
- Relative level, Pantothenate (listed as V): 1.2 and 1.3 and 1.4 and 0.7 and 0.8 (2×)
- Relative level, Phe (listed as V): 1.4 and 1.5 (2×) and 0.9 (2×) and 1.0
- Relative level, Pipecolate (listed as V): 1.6 and 1.9 and 1.8 and 0.9 (2×) and 1.2
- Relative level, Pro (listed as V): 1.3 (2×) and 1.4 and 0.851 and 0.9 (2×)
- Relative level, Pro-OH (listed as V): 1.3 and 1.4 (2×) and 0.9 (3×)
- Relative level, Pyr (listed as V): 2.1 and 3.2 and 1.3 and 0.7 and 1.1 and 6.3
- Relative level, R5P (listed as V): 3.5 and 1.8 and 2.1 and 1.2 and 0.468 and 0.53
- Relative level, S7P (listed as V): 3.0 and 1.6 and 2.7 and 1.2 and 0.9 and 0.6
- Relative level, SAM (listed as V): 1.6 and 1.7 (2×) and 0.9 and 1.1 (2×)
